The nature of experiment [1]: Inhibition of Staphylococcus aureus BPL assessed as inhibition constant by biotinylation assay.
Experiment [2] deals with Staphylococcus aureus. Put plainly: Antibacterial activity against methicillin-resistant Staphylococcus aureus USA300 incubated for 16 to 20 hrs by CLSI based broth microdilution method. In kind it is functional. The following applies: time 16-20 hrs.
Experiment [3] relates to Staphylococcus aureus. Nature of the experiment: Antibacterial activity against methicillin-resistant Staphylococcus aureus […] incubated for 16 to 20 hrs by CLSI based broth microdilution method. In kind it is functional. The following applies: time 16-20 hrs. Background: Broth dilution looks for growth in wells or tubes with falling amounts of substance.
Experiment [4] has as its system Staphylococcus aureus. Nature of the experiment: Antibacterial activity against methicillin-susceptible Staphylococcus aureus ATCC 29213 incubated for 16 to 20 hrs by CLSI based broth microdilution method. The note with it: time 16-20 hrs. Type of experiment: functional.
Experiment [5] has as its system Staphylococcus aureus. Nature of the experiment: Antibacterial activity against methicillin-susceptible Staphylococcus aureus ATCC 49775 incubated for 16 to 20 hrs by CLSI based broth microdilution method. Type of experiment: functional. The following applies: time 16-20 hrs.

The text below walks through data of ChEMBL document CHEMBL5608252, “New Potent Sulfonamide-Based Inhibitors of S. aureus Biotin Protein Ligase” (ACS Med Chem Lett, 2024).

pKi: −log10 of the molar value. ≈ marks a conversion by molar mass, not a printed value.

The pKi is −log10 of the Ki, conventionally taken in molar units. A word on the MIC: it is the lowest concentration found to suppress growth. For `Nc1ncnc2c1ncn2CCCCS(=O)(=O)NC(=O)OCCCCC[C@@H]1SC[C@@H]2NC(=O)N[C@@H]21`, the pKi in experiment [1] was 7.99. In addition, the MIC with Staphylococcus aureus [2], against Staphylococcus aureus [3], in the experiment with Staphylococcus aureus [4] and with Staphylococcus aureus [5] was greater than 256 µg/mL in each case.

As for `Nc1ncnc2c1ncn2CCCCNS(=O)(=O)NC(=O)NCCCC[C@@H]1SC[C@@H]2NC(=O)N[C@@H]21`, in experiment [1], the pKi is 7.19.

With `Nc1ncnc2c1ncn2CCCNS(=O)(=O)NC(=O)OCCCCC[C@@H]1SC[C@@H]2NC(=O)N[C@@H]21`, the pKi in experiment [1] is 7.70. For the same molecule, the MIC in the experiment on Staphylococcus aureus [2] came out at 32 µg/mL (≈ 60.6 µM); against Staphylococcus aureus [3], 16 µg/mL (≈ 30.3 µM); in the experiment with Staphylococcus aureus [4], 32 µg/mL (≈ 60.6 µM); in the experiment on Staphylococcus aureus [5], 32 µg/mL (≈ 60.6 µM).

As for `Nc1ncnc2c1ncn2CCCCOS(=O)(=O)NC(=O)NCCCC[C@@H]1SC[C@@H]2NC(=O)N[C@@H]21`, the pKi in experiment [1] was 7.45. In addition, the MIC was determined as 32 µg/mL (≈ 60.6 µM) with Staphylococcus aureus [2], 16 µg/mL (≈ 30.3 µM) against Staphylococcus aureus [3], 32 µg/mL (≈ 60.6 µM) with Staphylococcus aureus [4] and 32 µg/mL (≈ 60.6 µM) in the experiment on Staphylococcus aureus [5].

In the case of `Nc1ncnc2c1ncn2CCCCNS(=O)(=O)NC(=O)CCCC[C@@H]1SC[C@@H]2NC(=O)N[C@@H]21`, the pKi in experiment [1] is 8.15.

Consider `Nc1ncnc2c1ncn2CCCCCS(=O)(=O)NC(=O)NCCCC[C@@H]1SC[C@@H]2NC(=O)N[C@@H]21`, for which, in experiment [1], the pKi was 7.24. In addition, the MIC against Staphylococcus aureus [2], against Staphylococcus aureus [3], in the experiment with Staphylococcus aureus [4] and against Staphylococcus aureus [5] was 16 µg/mL (≈ 30.4 µM) in each case.
